Here are results for one molecule from patent publication US20250223297A1, “NOVEL RAPAMYCIN DERIVATIVES” (Novartis AG, priority 2017, published 2025).

Series [1] concerns S6K1 (Thr389) phosphorylation (mTORC1 activity) in FKBP12 knock-out 293T cells. Put plainly: S6K1 (Thr389) phosphorylation ELISA in FKBP12 knock-out 293T cells. Format: cell-based. Conditions: 2 h, relative to DMSO.
Series [2] concerns S6K1 (Thr389) phosphorylation (mTORC1 activity) in FKBP12 knock-down 293T cells. Put plainly: S6K1 (Thr389) phosphorylation ELISA in FKBP12 knock-down 293T cells. It is filed as cell-based. The settings on record: 2 h, relative to DMSO.
The subject of series [3] is mTORC1 signaling (pS6 Ser240/244) in MEF TSC1−/− cells. Put plainly: MEF TSC1-/- cell based assay for rapalog potency (pS6). Set-up: species or system mouse. The settings on record: Mus musculus, 2 h, 2 h treatment, average from multiple assays. The text has this: Potency of mTOR inhibitors may also be determined using a MEF TSC1−/− cell-based assay. MEF TSC1−/− cells are Mouse Embryonic Fibroblasts deficient in the Tuberous sclerosis protein, TSC1, which negatively regulates mTORC1 signaling. Thus, the deficiency of TSC1 induces constitutive mTORC1 activation, resulting in phosphorylation (activation) of the downstream proteins in the mTORC1 signaling pathways. This cell-based assay is used to measure inhibition (de-phosphorylation) of the mTORC1 signaling components S6 and 4EBP1, by rapalogs or other mTOR inhibitors.
The assay is typically carried out as follows: MEF TSC1−/− cells are plated on Poly-D-lysine coated 384 well Griener clear bottom plates and incubated overnight at 37° C., 5% CO2. […] Cells are fixed with 4% paraformaldehyde for 30 min and washed 5 times with TBS-EDTA followed by immuno-staining with florescent tag labeled antibodies for pS6 and p4EBP1. Nuclei are visualized with Hoechst staining. Cells are imaged using respective florescence channels and the potency of mTOR inhibitors is defined by pS6 IC50 (nM).
Cell-based assay for rapalog potency determination. Rapalog potency was determined using MEF TSC1−/− cell based assay. MEF TSC1−/− cells are Mouse Embryonic Fibroblasts deficient in Tuberous sclerosis protein-TSC1, which negatively regulates mTORC1 signaling and thus display constitutive mTORC1 activation, resulting in phosphorylation (activation) of downstream molecules. This cell-based assay is used to measure inhibition (de-phosphorylation) of S6 and 4EBP1 by rapalogs or other mTOR inhibitors.
MEF TSC1−/− cells were plated on Poly-D-lysine coated 384 well Griener clear bottom plates and incubated overnight at 37° C., 5% CO2. […] Nuclei were visualized with Hoechst (ThermoFisher Scientific #H3570) staining. Cells were imaged (InCell 600) using respective fluorescence channels and the potency of mTOR inhibitors was defined by pS6 IC50 (nM).
In vitro potency of mTOR inhibitors was defined by pS6 IC50 (nM) in MEF TSC1−/− cells.
IC50 values are calculated as the average from multiple assays.

The subject of series [4] is mTORC1 pathway (S6 phosphorylation) in rat liver. Put plainly: Inhibition of mTORC1 pathway in rat liver (p-S6/t-S6 immunoblot). It is filed as in vivo. Here is the method:
Protein extraction and immunoblotting. For protein extraction, snap frozen tissues were lysed in MSD Lysis Buffer (MSD, Rockville, Maryland), supplemented with complete EDTA free protease inhibitor and PhosSTOP phosphatase inhibitor tablets (Roche, Manheim, Germany), and centrifuged at 13,000g for 20 min at 4° C. The resultant supernatant was used for immunoblotting. Protein was quantified with BCA protein assay (Thermo Scientific, MA). Samples were resolved on 4-20% Criterion™ TGX™ Precast Midi Protein gels (Bio-Rad, CA) and transferred onto nitrocellulose membranes (Bio-Rad, CA) using a Trans Turbo Blot system (Bio-Rad, CA). Immunoblotting was performed with antibodies to p-S6 and t-S6 from Cell Signaling Technologies (all 1:1000 in TBS-T with 5% BSA). The ‘p’ and ‘t’ prefixes signify ‘phosphorylated’ and ‘total’ forms respectively. HRP-conjugated secondary antibodies against rabbit (#7074) were from Cell Signaling Technologies, MA. […] Resultant digital images were converted into a TIFF format and quantified using ImageJ software.
The ability of Example 2 to inhibit mTORC1 pathway in vivo was determined in rats aged 4 months (FIG. 5A-5D).

The next series has as its target FKBP12 (Homo sapiens (Human), UniProt P62942). Briefly: SPR assay, binding affinity to FKBP12. The settings on record: single-cycle kinetics. Here is the method:
(§1) SPR Assay to Determine Binding Affinity to FK506-Binding Proteins (FKBP). N-terminal avi-his6 tagged FKBP fusions to FKBP12, FKBP51 and FKBP52 were expressed in E. coli and purified using standard chromatography. Each protein was subsequently immobilized on a streptavidin chip in a Biacore 8K SPR instrument (GE Healthcare). Using single-cycle kinetics, compound titrations were flowed at 45 uL/min over each surface using 2-minute association and 30-minute dissociation phases in a buffer containing 50 mM Tris pH 7.5/150 mM NaCl/0.01% Tween 20/1 mM DTT/2% DMSO. The data was fit using low molecular weight (LMW) single-cycle kinetics. The equilibrium dissociation constants (KD) are reported. […]

The target in another series is FKBP52 (Homo sapiens (Human), UniProt Q02790). Put plainly: SPR assay, binding affinity to FKBP52. The settings on record: single-cycle kinetics. Here is the method: as §1
For series [5], the system named is S6K1 (Thr389) phosphorylation (mTORC1 activity) in WT 293T cells. Put plainly: S6K1 (Thr389) phosphorylation ELISA in wild-type 293T cells. It is filed as cell-based. Conditions: 2 h, relative to DMSO. Here is the method:
WT, FKBP12 knock-down and FKBP12 knock-out 293T cells were plated at a density of 30,000 cells per well in poly-D-Lysine coated 96-well plates (Corning, #354461) in Dulbecco's modified Eagle's medium (ThermoFisher, #11995-065) supplemented with 10% fetal bovine serum (ThermoFisher, #16140-071). Cells were incubated at 37° C., 5% CO2 for 48 hours until they reached ˜80% confluence. […] Media supplemented with blank Dimethyl sulfoxide (DMSO) was used as a control for both compounds. Phosphorylated amounts of S6K1 (Thr389) were detected by a sandwich ELISA kit (Cell signaling, #7063C) following the manufacture's protocol.
S6K1 is a downstream target of mTORC1 and phosphorylation of its rapalog-sensitive Thr389 site is used as a functional readout of mTORC1 activity. Lee, C. H., Inoki, K. and Guan, K. L. (2007). mTOR pathway as a target in […]. Annu. Rev. Pharmacol. Toxicol. 47. 443-467. […] In FKBP12 knock-out cells. […] Such specificity of Example 2 to FKBP12 may facilitate targeting cells and tissues with relatively high levels of FKBP12 expression, while avoiding (or minimizing) side effects in the tissues where FKBP12 is weakly expressed.

Series [6] can be described thus: Comparative blood and brain concentrations in rats after single p.o. dose. Format: in vivo. Conditions: rat, single p.o. dose 3, 10, 30 mg/kg; 3 h and 24 h. Here is the method:
Concentrations were determined using HPLC/Mass spectrometry. […] Blood and brain tissues were collected at 3 hours (h) and 24 h following treatment to determine concentrations of the compounds.

Molecules are shown by their SMILES.

Sequence of FKBP12 (P62942 whole entry, the tested form may be a part): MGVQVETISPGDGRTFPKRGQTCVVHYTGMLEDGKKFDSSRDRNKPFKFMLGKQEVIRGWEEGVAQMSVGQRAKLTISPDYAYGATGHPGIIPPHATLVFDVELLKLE
Sequence of FKBP52 (Q02790 whole entry): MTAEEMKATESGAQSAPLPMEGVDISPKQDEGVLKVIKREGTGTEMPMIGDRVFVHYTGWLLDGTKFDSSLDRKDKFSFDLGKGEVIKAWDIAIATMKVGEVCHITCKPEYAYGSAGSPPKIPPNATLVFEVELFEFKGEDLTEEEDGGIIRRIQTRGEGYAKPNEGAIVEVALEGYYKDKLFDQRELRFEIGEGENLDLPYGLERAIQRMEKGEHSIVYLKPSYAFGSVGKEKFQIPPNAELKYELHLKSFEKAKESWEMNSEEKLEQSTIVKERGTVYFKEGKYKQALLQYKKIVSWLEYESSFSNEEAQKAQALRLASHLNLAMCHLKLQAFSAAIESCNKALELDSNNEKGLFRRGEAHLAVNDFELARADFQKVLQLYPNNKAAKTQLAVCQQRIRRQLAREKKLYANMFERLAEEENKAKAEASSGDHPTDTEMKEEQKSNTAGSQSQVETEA

On to `CO[C@@H]1C[C@H](C[C@@H](C)[C@@H]2CC[C@H](C)/C=C(\C)[C@@H](O)[C@@H](OC)C(=O)[C@H](C)C[C@H](C)/C=C/C=C/C=C(\C)[C@H](N3CCCS3(=O)=O)C[C@@H]3CC[C@@H](C)[C@@](O)(O3)C(=O)C(=O)N3CCCC[C@H]3C(=O)O2)CC[C@H]1O` [Example 2, (R)-C16-(1,1-dioxidoisothiazolidin-2-yl)-C32-deoxo-rapamycin], for which, in series [1], the “inhibition of S6K1 (Thr389) phosphorylation” value is “failed to inhibit”. For the same molecule, in series [2], the “maximum inhibition of S6K1 (Thr389)” value is recorded as roughly 40%. The 50% inhibitory concentration (IC50) in series [3] came to 0.274 nM. Besides, the “S6 inactivation in rat liver, 24 h” value in series [4] (24 h following dosing with 10 (trend p=0.06) and 30 mg/kg) was “remained inactivated”. Further, the “de-phosphorylation (inactivation) of S6 in rat liver, 3 h” value in series [4] (single p.o. dose 3, 10 and 30 mg/kg, three hours following dosing, vs vehicle) is given as “significant de-phosphorylation”. Besides, the Kd on FKBP12 came to 16 nM. The Kd on FKBP52 was greater than 10 µM. Moreover, the “inhibition of S6K1 (Thr389)” value in series [5] was roughly 80%. Also, in series [6], the “blood concentrations compared with RAD001” value was “higher” and the “brain concentrations compared with RAD001” value was “higher”.
